{"source": "patent US5256682A", "about": "“Isoxazolylimidazole derivatives, process for their production and their use in pharmaceutical agents” (Schering Aktiengesellschaft, priority 1991, dated 1993)"}
{"assay": "Metabolic stability: % of test substance remaining after incubation with mouse liver homogenate", "format": "in vitro ADME", "details": "amount not catabolized, in % of the zero value; 120 minutes, 37° C., pH 7.3; NMRI mouse liver homogenate; HPLC; read-out: % Radical after incubation with mouse liver homogenate", "protocol": "The stability of the compounds was measured as follows:\nThe test substance (1 μg/50 μl of ethanol) was adjusted with 750 μl of Krebs-Henseleit-Ringer phosphate buffer to pH 7.3 and brought together with 750 μl of a liver homogenate at room temperature and mixed. 250 μl of this batch was removed for zero-point determination and the batch was incubated at 37° C. with continuous movement in a water bath. Aliquot parts of 250 μl are removed after 120 minutes, extracted with 3 ml of diethyl ether after 5 minutes of shaking, then centrifuged for 10 minutes under cooling, frozen, the ether is decanted and dried in a dry nitrogen stream. The residue is dissolved in each case in 200 μl of ethanol and the solution is analyzed with HPLC. The liver used was obtained from NMRI mice and homogenized after removal immediate in 4 parts of a 0.25 molar sucrose solution in a Potter-Elvehjem mixer. The homogenate was then filtered through linen and diluted with the same sucrose solution to 1:10 (weight: volume). Aliquot parts of the solution were stored at -18° C.", "units": {"remaining at 2 h": "%"}}
{"smiles": "CCc1nc(-c2ncn(-c3cccc(Oc4ccccc4)c3)c2C)no1", "note": "[A, 4-(5-ethyl-1,2,4-oxadiazol-3-yl)-5-methyl-1-(3-phenoxy-phenyl)-imidazole, reference compound]", "remaining at 2 h": 31}
{"smiles": "CCc1cc(-c2ncn(-c3cccc(Oc4ccccc4)c3)c2C)on1", "note": "[B, 4-(3-Ethyl-isoxazol-5-yl)-5-methyl-1-(3-phenoxyphenyl)imidazole]", "remaining at 2 h": 95}
{"smiles": "CCc1cc(-c2ncn(-c3cccc(Oc4ccccc4)c3)c2C)no1", "note": "[C, 4-(5-Ethyl-isoxazol-3-yl)-5-methyl-1-(3-phenoxyphenyl)imidazole]", "remaining at 2 h": 71}
{"smiles": "COCc1cc(-c2ncn(-c3cccc(Oc4ccccc4)c3)c2C)on1", "note": "[D, 4-(3-Methoxymethyl-isoxazol-5-yl)-5-methyl-1-(3-phenoxyphenyl)-imidazole]", "remaining at 2 h": 100}
